# Entries after “also recorded” stand apart in the source; their conditions may differ. Like-named read-outs stand apart in the source and are kept apart here. Marks after values point to notes of the source that are not given here.
# Assays:
# hERG [1] = biological target: T1, hERG (Homo sapiens, UniProt Q12809); conditions: for hERG ion channel inhibition (in words): hERG inhibition binding assay
# Human SST2 = Human SST2 (Homo sapiens, UniProt P30874); format: cell-based
# IGF-1 = conditions: Phase 2, acromegaly patients switched to oral paltusotine; cited from earlier work
# hERG [2] = biological target: T1, hERG; test: Patch-clamp hERG assay; format: cell-based
# plasma IGF-1 [3] = test: Plasma IGF-1 after repeated daily oral dosing in rats; format: in vivo, rat; conditions: male SD rats
# GH secretion and IGF-1 = conditions: cited from earlier work; for effect on IGF-1 levels / effect on GHRH-stimulated GH secretion: Phase 1, healthy volunteers; for effect on IGF-1 levels: over several days
# [4] = healthy human volunteers, Phase 1 study; cited from earlier work
# plasma IGF-1 [5] = test: Plasma IGF-1 after repeated daily oral dosing in dogs; format: in vivo, dog; conditions: p < 0.05
# T1 sequence (Q12809 whole entry): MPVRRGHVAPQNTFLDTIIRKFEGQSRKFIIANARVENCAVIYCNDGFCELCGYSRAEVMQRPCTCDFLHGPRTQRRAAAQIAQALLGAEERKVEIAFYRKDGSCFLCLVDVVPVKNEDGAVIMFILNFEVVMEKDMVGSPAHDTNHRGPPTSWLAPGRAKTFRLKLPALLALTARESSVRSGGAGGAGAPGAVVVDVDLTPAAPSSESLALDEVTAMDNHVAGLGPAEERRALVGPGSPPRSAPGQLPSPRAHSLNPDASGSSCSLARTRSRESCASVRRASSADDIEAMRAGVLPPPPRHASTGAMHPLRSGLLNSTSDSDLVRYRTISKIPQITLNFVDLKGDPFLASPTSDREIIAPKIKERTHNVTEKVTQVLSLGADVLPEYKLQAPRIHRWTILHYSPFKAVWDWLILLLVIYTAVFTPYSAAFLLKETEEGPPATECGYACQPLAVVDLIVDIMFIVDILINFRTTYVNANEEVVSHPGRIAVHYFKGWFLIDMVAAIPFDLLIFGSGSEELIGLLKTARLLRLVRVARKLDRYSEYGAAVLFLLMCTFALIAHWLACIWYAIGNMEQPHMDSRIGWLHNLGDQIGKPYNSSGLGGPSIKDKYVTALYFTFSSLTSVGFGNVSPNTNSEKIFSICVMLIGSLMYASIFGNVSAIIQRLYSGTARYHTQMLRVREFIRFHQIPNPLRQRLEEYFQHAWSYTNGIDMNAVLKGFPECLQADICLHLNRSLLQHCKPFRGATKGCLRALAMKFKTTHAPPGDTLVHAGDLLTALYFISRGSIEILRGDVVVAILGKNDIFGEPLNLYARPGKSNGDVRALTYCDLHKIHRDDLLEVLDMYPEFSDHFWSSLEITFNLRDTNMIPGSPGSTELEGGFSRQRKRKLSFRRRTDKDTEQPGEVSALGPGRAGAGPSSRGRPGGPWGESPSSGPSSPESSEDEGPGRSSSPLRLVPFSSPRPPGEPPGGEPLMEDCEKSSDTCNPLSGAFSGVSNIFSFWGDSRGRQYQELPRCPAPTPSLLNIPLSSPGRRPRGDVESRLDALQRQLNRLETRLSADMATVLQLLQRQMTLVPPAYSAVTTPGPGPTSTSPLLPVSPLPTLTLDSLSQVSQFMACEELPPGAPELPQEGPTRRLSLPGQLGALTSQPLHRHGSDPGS
# Human SST2, sequence (P30874 whole entry): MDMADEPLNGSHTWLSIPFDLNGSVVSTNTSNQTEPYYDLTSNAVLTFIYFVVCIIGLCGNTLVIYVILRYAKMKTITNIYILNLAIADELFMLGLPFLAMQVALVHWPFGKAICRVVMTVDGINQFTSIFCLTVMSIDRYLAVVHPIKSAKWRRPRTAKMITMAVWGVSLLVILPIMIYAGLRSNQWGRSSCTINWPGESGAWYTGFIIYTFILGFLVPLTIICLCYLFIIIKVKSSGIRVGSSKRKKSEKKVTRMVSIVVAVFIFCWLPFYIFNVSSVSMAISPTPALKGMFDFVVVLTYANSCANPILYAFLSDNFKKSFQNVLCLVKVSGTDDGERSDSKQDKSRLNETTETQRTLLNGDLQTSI
selectivity for SST2 over other SST receptor subtypes (Human SST2) [fold],Compound,hERG ion channel inhibition (in words) (hERG [1]),effect on IGF-1 levels after switch from injected depots (IGF-1),IC50 (hERG [2]) [µM],"suppression of plasma IGF-1 relative to vehicle (plasma IGF-1 [3]; 10 mg/kg/day po for 14 days, days 2, 10 and 14, p < 0.05)","suppression of plasma IGF-1 relative to vehicle (plasma IGF-1 [3]; 30 mg/kg/day po for 14 days, all days measured, p < 0.05)",hERG pIC50±SEM (hERG [1]; hERG binding assay),effect on IGF-1 levels (GH secretion and IGF-1; listed as Paltusotine),effect on IGF-1 levels (GH secretion and IGF-1; listed as paltusotine),effect on GHRH-stimulated GH secretion (GH secretion and IGF-1; listed as Paltusotine),effect on GHRH-stimulated GH secretion (GH secretion and IGF-1; listed as paltusotine),"tolerability (GH secretion and IGF-1; double-blind placebo-controlled Phase 1 trial, healthy volunteers)",oral bioavailability [4] [%],"suppression of plasma IGF-1 relative to vehicle, day 1 (plasma IGF-1 [5]; male and female beagle dogs, 150 mg/kg/day po)","suppression of plasma IGF-1 compared to vehicle, day 7 (plasma IGF-1 [5]; male and female beagle dogs, 6, 30 and 150 mg/kg/day po for 7 days)"
,N#Cc1cccc(-c2ccc3ncc(-c4cccc(F)c4)c(N4CCC(N)CC4)c3c2)c1O [Compound 25],weak inhibitors,,,,,,,,,,,,,
> 1000,"N#Cc1cccc(-c2ccc3ncc(-c4cc(F)cc(F)c4)c(N4CCC(N)CC4)c3c2)c1O [Compound 22, 3-[4-(4-aminopiperidin-1-yl)-3-(3,5-difluorophenyl)quinolin-6-yl]-2-hydroxybenzonitrile]",weak inhibitors; also recorded: no direct inhibition,maintain IGF-1 levels,9.9,significantly suppressed,significantly suppressed,<5 ^c,dose-dependent reduction,lowered IGF-1 levels,dose-dependent reduction,acutely suppressed,good tolerability,~70,significantly suppressed,significantly suppressed
,N#Cc1cc(F)cc(-c2ccc3ncc(-c4cc(F)cc(F)c4)c(N4CCC(N)CC4)c3c2)c1O [Compound 24],weak inhibitors,,,,,,,,,,,,,
